Measured values taken from the supplement of paper PMC10307832.

Legend:
Assay in all cases: relative viability (nuclei count vs DMSO), 5 days (fraction); higher = more cells survive
Ibrutinib + Foretinib = compound: C=CC(=O)N1CCC[C@@H](n2nc(-c3ccc(Oc4ccccc4)cc3)c3c(N)ncnc32)C1 [Ibrutinib] + COc1cc2c(Oc3ccc(NC(=O)C4(C(=O)Nc5ccc(F)cc5)CC4)cc3F)ccnc2cc1OCCCN1CCOCC1 [Foretinib] (partner 0.25 µM)
Method in brief: (§1)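 Lung cancer cell lines, seeded in 1536-well plates, were treated the following day by pin tool with a single drug or with five library-drug doses (not always all listed) in √10 steps on top of a fixed anchor-drug dose. Cells were fixed and nuclei stained in one step after 5 days, and nuclei were counted. Relative viability is the nuclei count for treated wells divided by that for vehicle wells, reported as medians of duplicate plates.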

BMX-IN-1 + Tozasertib = compound: C=CC(=O)Nc1cc(-n2c(=O)ccc3cnc4ccc(-c5ccc(NS(C)(=O)=O)cc5)cc4c32)ccc1C [BMX-IN-1] + Cc1cc(Nc2cc(N3CCN(C)CC3)nc(Sc3ccc(NC(=O)C4CC4)cc3)n2)n[nH]1 [Tozasertib] (partner 0.1 µM)
Method in brief: as §1

BMX-IN-1 + AZD7762 = compound: C=CC(=O)Nc1cc(-n2c(=O)ccc3cnc4ccc(-c5ccc(NS(C)(=O)=O)cc5)cc4c32)ccc1C [BMX-IN-1] + NC(=O)Nc1cc(-c2cccc(F)c2)sc1C(=O)N[C@H]1CCCNC1 [AZD7762] (partner 0.2 µM)
Method in brief: as §1

PAC-1 + Vorinostat = compound: C=CCc1cccc(/C=N/NC(=O)CN2CCN(Cc3ccccc3)CC2)c1O [PAC-1] + O=C(CCCCCCC(=O)Nc1ccccc1)NO [Vorinostat] (partner 1 µM)
Method in brief: as §1

Cell Line	relative viability (Ibrutinib + Foretinib; first compound 0.01581 µM)	relative viability (Ibrutinib + Foretinib; first compound 0.05 µM)	relative viability (Ibrutinib + Foretinib; first compound 0.1581 µM)	relative viability (Ibrutinib + Foretinib; first compound 0.5 µM)	relative viability (BMX-IN-1 + Tozasertib; first compound 0.02 µM)	relative viability (BMX-IN-1 + Tozasertib; first compound 0.2 µM)	relative viability (BMX-IN-1 + Tozasertib; first compound 0.6325 µM)	relative viability (BMX-IN-1 + Tozasertib; first compound 2 µM)	relative viability (BMX-IN-1 + AZD7762; first compound 0.02 µM)	relative viability (BMX-IN-1 + AZD7762; first compound 0.2 µM)	relative viability (BMX-IN-1 + AZD7762; first compound 0.6325 µM)	relative viability (BMX-IN-1 + AZD7762; first compound 2 µM)	relative viability (PAC-1 + Vorinostat; first compound 0.02 µM)	relative viability (PAC-1 + Vorinostat; first compound 0.06325 µM)	relative viability (PAC-1 + Vorinostat; first compound 0.2 µM)	relative viability (PAC-1 + Vorinostat; first compound 2 µM)	relative viability (Ibrutinib + Foretinib; first compound 0.005 µM)
NCI-H1793	0.566	0.552	0.545	0.416	0.311	0.285	0.311	0.303	0.513	0.661	0.594	0.588	0.653	0.814	0.741	0.894	
NCI-H1915	1.07	1.11	1.15	1.09	0.438	0.586	0.504	0.445	0.774	0.786	0.806	0.675	0.507	0.506	0.427	0.562	1.12
NCI-H1944	0.734	0.72	0.879	0.605	0.279	0.254	0.236	0.244	0.479	0.661	0.52	0.578	0.537	0.555	0.542	0.642	0.891
NCI-H1975	0.891	0.819	0.96	0.544	0.958	1.1	0.792	0.695	0.797	0.742	0.895	0.673	0.71	0.713	0.765	0.77	0.973
NCI-H1993	0.72	0.759	0.783	0.62	0.624	0.652	0.585	0.498	0.907	0.926	0.706	0.724	0.821	0.895	0.658	0.652	0.74
NCI-H2085	0.628	0.941	1.1	0.625	0.873	0.754	0.794	0.734	1.08	1.07	0.986	0.996	0.791	0.789	0.737	0.822	0.916
NCI-H2087	1.21	1.09		1.24	0.244	0.24	0.344	0.263	1.67	1.44	1.3	1.42	0.678	0.665	0.722	0.858	1.18
NCI-H2126	1.03	1.24	1.25	1.02	1.03	0.947	0.867	0.829	1.03	1.06	1.16	1.04	0.733	0.785	0.803	0.763	
NCI-H2170	0.858	0.951	1.01	0.377	0.771	0.779	0.625	0.777	0.945	0.98	1.03	0.928	0.894	0.809	0.795	0.775	1.06
NCI-H2342	1	0.812	1.12	0.801	0.454	0.526	0.494	0.422	0.454	0.484	0.492	0.447	0.733	0.659	0.802	0.739	0.9
NCI-H2347	0.811	0.8		0.725	0.518	0.471	0.585	0.537	0.787	0.833	0.712	0.945	0.589	0.593	0.606	0.657	
NCI-H2405	1.07	1.08	1.06		0.808	0.76	0.861	0.747	0.831	0.941	0.762	0.805	1.05	1.12	1.14	1.15	1.11
NCI-H3122	0.984	1.04	0.938	1.04	0.516	0.399	0.461	0.117	1.22	1.16	1.11	1.07	1.01	0.972	0.787	0.83	1.02
PC-3 [JPC-3]	0.936	0.891	1.09	0.547	1.02	1.02	1.08	0.951	0.886	0.925	0.918	0.847	0.82	0.915	1.06	0.832	1.05
PC-14	0.907		1.02	0.985	0.672	0.658	0.605	0.571	0.404	0.459	0.408	0.312	0.816	0.764	0.629	0.743	1.1
RERF-LC-KJ	0.707	0.841	0.895	0.845	0.566	0.642	0.472	0.435	1.1	0.957	1.3	1.19	0.715	0.67	0.475	0.711	0.97
SW 900		0.861	0.683	0.836	0.425	0.682	0.606	0.679	0.656	0.636	0.735	0.666		0.41	0.494	0.553	
